Our source for the IC50 values is patent US20240360151A1 (SANOFI, priority 2023, published 2024).

Assay [1] has as its target T1, NLRP3 inflammasome (Homo sapiens, UniProt Q96P20).
T1 construct: endogenous in cells; host or cells: THP-1 monocytic cells
The experiment in a line: IL-1β secretion assay (NLRP3 IC50) in LPS-primed, nigericin-activated THP-1 cells, HTRF. In kind it is cell-based. Conditions: monocytic THP-1 cells; LPS 10 ng/mL 3 h priming, then compound + nigericin 10 μM 2 h; relative IC50, 10 concentrations, geometric mean. In a few lines:
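IL-1β in supernatant read by HTRF after 2 h co-incubation of compound (0.1% DMSO, 10 concentrations, 1:3 series) with nigericin at 10 μM final, following 3 h LPS (10 ng/mL) priming of THP-1 monocytes at 37° C. Inhibition normalised to unactivated and no-compound controls; geometric-mean relative IC50 from 4-parameter logistic model.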

Assay [2] deals with NF-kB pathway (TNF-α secretion by THP-1 cells). In words: TNF-α secretion assay in LPS-stimulated THP-1 cells, Lumit immunoassay. Type of assay: cell-based, human. Conditions: monocytic THP-1 cells, LPS 10 ng/mL, relative IC50, 10 concentrations, geometric mean. The procedure, abridged: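 TNF-α release was quantified directly in the cell plate by Lumit immunoassay after a 3-h, 10 ng/mL LPS trigger of compound-treated THP-1 cells (RPMI, 5% FBS). Percent inhibition versus no-compound and unstimulated controls fed a 4-parameter logistic fit over 10 concentrations, giving geometric-mean relative IC50.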

T1 sequence (Q96P20 whole entry): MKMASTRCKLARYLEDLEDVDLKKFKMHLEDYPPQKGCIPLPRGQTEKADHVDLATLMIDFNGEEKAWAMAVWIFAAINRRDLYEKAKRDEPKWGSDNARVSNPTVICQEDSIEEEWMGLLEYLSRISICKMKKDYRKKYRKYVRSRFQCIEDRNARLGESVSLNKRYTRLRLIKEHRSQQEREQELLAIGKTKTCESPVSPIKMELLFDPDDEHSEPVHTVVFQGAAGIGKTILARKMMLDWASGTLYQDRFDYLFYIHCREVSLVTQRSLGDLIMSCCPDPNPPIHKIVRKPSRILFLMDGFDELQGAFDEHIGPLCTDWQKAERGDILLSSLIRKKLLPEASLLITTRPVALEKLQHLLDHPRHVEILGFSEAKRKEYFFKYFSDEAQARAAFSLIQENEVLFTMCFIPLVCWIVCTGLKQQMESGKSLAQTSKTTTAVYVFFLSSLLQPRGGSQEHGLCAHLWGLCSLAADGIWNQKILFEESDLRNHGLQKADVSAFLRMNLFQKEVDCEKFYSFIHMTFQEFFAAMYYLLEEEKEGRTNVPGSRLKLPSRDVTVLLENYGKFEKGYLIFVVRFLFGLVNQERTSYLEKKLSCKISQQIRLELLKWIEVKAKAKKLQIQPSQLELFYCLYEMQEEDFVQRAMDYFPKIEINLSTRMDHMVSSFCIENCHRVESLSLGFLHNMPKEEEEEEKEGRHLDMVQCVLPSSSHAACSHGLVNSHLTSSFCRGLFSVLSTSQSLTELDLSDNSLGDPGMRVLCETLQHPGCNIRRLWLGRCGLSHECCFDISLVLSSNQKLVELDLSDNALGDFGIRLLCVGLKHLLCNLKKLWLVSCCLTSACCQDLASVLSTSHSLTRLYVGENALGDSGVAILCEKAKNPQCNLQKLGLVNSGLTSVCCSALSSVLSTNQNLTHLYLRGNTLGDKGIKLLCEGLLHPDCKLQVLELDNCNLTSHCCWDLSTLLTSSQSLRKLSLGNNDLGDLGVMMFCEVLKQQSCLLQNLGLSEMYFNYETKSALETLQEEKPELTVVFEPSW

For the compound `Cc1cc(C(F)(F)F)cc(O)c1-c1ccc(N2CC[C@H]3CNC[C@H]32)nn1` (racemic) [Example 229, 2-[6-[rac-(3aS,6aS)-3,3a,4,5,6,6a-hexahydro-2H-pyrrolo[3,4-b]pyrrol-1-yl]pyridazin-3-yl]-3-methyl-5-(trifluoromethyl)phenol], the 50% inhibitory concentration (IC50) is 42 nM in assay [1] and > 10000 nM in assay [2] (Homo sapiens, THP-1, 3 h).
On to `Cc1cc(C(F)(F)F)cc(O)c1-c1nnc(N2CCO[C@H](CO)C2)cc1C(F)F` [Example 248, 2-[4-(difluoromethyl)-6-[(2S)-2-(hydroxymethyl)morpholin-4-yl]pyridazin-3-yl]-3-methyl-5-(trifluoromethyl)phenol], for which the half-inhibitory concentration (IC50) was 81 nM in assay [1] and > 10000 nM in assay [2] (Homo sapiens, THP-1, 3 h).
For `CCN1C[C@@H]2OCCN(c3ccc(-c4c(C)cc(C(F)(F)F)cc4O)nn3)[C@@H]2C1` (racemic) [Example 361, 3-methyl-2-[6-[rac-(4aR,7aS)-6-ethyl-2,3,4a,5,7,7a-hexahydropyrrolo[3,4-b][1,4]oxazin-4-yl]pyridazin-3-yl]-5-(trifluoromethyl)phenol] the same measures were 8 nM and > 10000 nM.
On the same counts, the results for `CCc1cc(C(F)(F)F)cc(O)c1-c1ccc(N2CCO[C@H](CO)C2)nn1` [Example 418, 3-ethyl-2-[6-[(2S)-2-(hydroxymethyl)morpholin-4-yl]pyridazin-3-yl]-5-(trifluoromethyl)phenol] are 13 nM and > 10000 nM.
In the case of `Cc1cc(C)c(-c2ccc(N3CC[C@@H]4CCN(C)C[C@@H]43)nn2)c(O)c1` (racemic) [Example 342, 3,5-dimethyl-2-[6-[rac-(3aS,7aR)-6-methyl-3,3a,4,5,7,7a-hexahydro-2H-pyrrolo[2,3-c]pyridin-1-yl]pyridazin-3-yl]phenol], the IC50 in assay [1] is 2 nM; in assay [2] (Homo sapiens, THP-1, 3 h) it was > 10000 nM.
For the compound `Oc1cc(C(F)(F)F)ccc1-c1nnc(N2CCO[C@@H]3CCNC[C@@H]32)cc1C(F)F` [Example 382, 2-[6-[(4aS,8aR)-2,3,4a,5,6,7,8,8a-octahydropyrido[4,3-b][1,4]oxazin-4-yl]-4-(difluoromethyl)pyridazin-3-yl]-5-(trifluoromethyl)phenol], the IC50 in assay [1] was 12 nM; in assay [2] (Homo sapiens, THP-1, 3 h), > 10000 nM.
For `OC[C@@H]1CCCN(c2ccc(-c3c(O)cc(Cl)cc3Cl)nn2)C1` [Example 36, 3,5-dichloro-2-[6-[(3R)-3-(hydroxymethyl)-1-piperidyl]pyridazin-3-yl]phenol] the same measures were 96 nM and > 10000 nM.
As to `Cc1cc(C(F)(F)F)cc(O)c1-c1ccc(N2CC[C@@H]3CCN(C)C[C@@H]32)nn1` (racemic) [Example 371, 2-[6-[rac-(3aS,7aR)-6-methyl-3,3a,4,5,7,7a-hexahydro-2H-pyrrolo[2,3-c]pyridin-1-yl]pyridazin-3-yl]-3-methyl-5-(trifluoromethyl)phenol], the 50% inhibitory concentration (IC50) in assay [1] was 1 nM; in assay [2] (Homo sapiens, THP-1, 3 h), > 10000 nM.
In the case of `OC[C@@H]1CN(c2ccc(-c3c(O)cc(Cl)cc3Cl)nn2)CCO1` [Example 21, 3,5-dichloro-2-[6-[(2S)-2-(hydroxymethyl)morpholin-4-yl]pyridazin-3-yl]phenol], the IC50 in assay [1] was 20 nM; in assay [2] (Homo sapiens, THP-1, 3 h), > 10000 nM.
As to `Cc1cc(C)c(-c2ccc(N3CCc4ccc(O)cc43)nn2)c(O)c1` [Example 254, 1-[6-(2-hydroxy-4,6-dimethyl-phenyl)pyridazin-3-yl]indolin-6-ol], the IC50 in assay [1] was determined as 460 nM; in assay [2] (Homo sapiens, THP-1, 3 h) it was 9970 nM.
As for `Cc1cc(C)c(-c2ccc(N3CCc4cc(O)ccc43)nn2)c(O)c1` [Example 236, 1-[6-(2-hydroxy-4,6-dimethyl-phenyl)pyridazin-3-yl]indolin-5-ol], the IC50 in assay [1] turned out to be 551 nM; in assay [2] (Homo sapiens, THP-1, 3 h), 9650 nM.
For `Cc1cc(C)c(-c2ccc(N3CCO[C@@H]4CCN(C)C[C@@H]43)nn2)c(O)c1` [Example 311, 2-[6-[(4aS,8aR)-6-methyl-3,4a,5,7,8,8a-hexahydro-2H-pyrido[4,3-b][1,4]oxazin-4-yl]pyridazin-3-yl]-3,5-dimethyl-phenol], the 50% inhibitory concentration (IC50) in assay [1] is 2 nM; in assay [2] (Homo sapiens, THP-1, 3 h) it was > 10000 nM.
Turning to `Cc1cc(C)c(-c2ccc(N3C[C@@H](CO)O[C@H](CO)C3)nn2)c(O)c1` [Example 198, 2-[6-[(2S,6S)-2,6-bis(hydroxymethyl)morpholin-4-yl]pyridazin-3-yl]-3,5-dimethyl-phenol], the half-inhibitory concentration (IC50) in assay [1] is 16 nM; in assay [2] (Homo sapiens, THP-1, 3 h), > 10000 nM.
For the compound `Cc1cc(-c2c(C)cc(Cl)cc2O)nnc1N1CCO[C@H](CO)C1` [Example 133, 5-chloro-2-[6-[(2S)-2-(hydroxymethyl)morpholin-4-yl]-5-methyl-pyridazin-3-yl]-3-methyl-phenol], the IC50 is 68 nM in assay [1] and > 10000 nM in assay [2] (Homo sapiens, THP-1, 3 h).
As for `Cc1ccc(-c2nnc(N3CCO[C@H](CO)C3)cc2C(F)F)c(O)c1` [Example 144, 2-[4-(difluoromethyl)-6-[(2S)-2-(hydroxymethyl)morpholin-4-yl]pyridazin-3-yl]-5-methyl-phenol], the IC50 in assay [1] is 151 nM; in assay [2] (Homo sapiens, THP-1, 3 h), > 10000 nM.
In the case of `Cc1cc(C)c(-c2ccc(N3CCCc4c(O)cccc43)nn2)c(O)c1` [Example 232, 1-[6-(2-hydroxy-4,6-dimethyl-phenyl)pyridazin-3-yl]-3,4-dihydro-2H-quinolin-5-ol], the half-inhibitory concentration (IC50) turned out to be 502 nM in assay [1] and 7630 nM in assay [2] (Homo sapiens, THP-1, 3 h).
On the same counts, the results for `Cc1cc(C)c(-c2ccc(N3CCC[C@]4(C3)C[C@@H](O)C4)nn2)c(O)c1` (single isomer, unassigned; isomer 2) [Example 176, 6-[6-(2-hydroxy-4,6-dimethyl-phenyl)pyridazin-3-yl]-6-azaspiro[3.5]nonan-2-ol Isomer 2] are 250 nM and > 10000 nM.
As to `CC(=O)NCCC1CN(c2ccc(-c3c(C)cc(C(F)(F)F)cc3O)nn2)CCO1` (single isomer, unassigned) [Example 277, N-[2-[4-[6-[2-hydroxy-6-methyl-4-(trifluoromethyl)phenyl]pyridazin-3-yl]morpholin-2-yl]ethyl]acetamide], the IC50 was 51 nM in assay [1] and 2040 nM in assay [2] (3 hours).
On to `Cc1cc(C)c(-c2ccc(N3C[C@@H]4COC[C@H]4C3)nn2)c(O)c1` (stereo in doubt) [Example 207, 2-[6-[(3aR,6aR)-1,3,3a,4,6,6a-hexahydrofuro[3,4-c]pyrrol-5-yl]pyridazin-3-yl]-3,5-dimethyl-phenol], for which the 50% inhibitory concentration (IC50) in assay [1] was found to be 174 nM; in assay [2] (Homo sapiens, THP-1, 3 h) it was 3010 nM.
On the same counts, the results for `CC(=O)N1CC[C@H]2OCCN(c3cc(C)c(-c4ccc(C(F)(F)F)cc4O)nn3)[C@H]2C1` [Example 363, 1-[(4aS,8aR)-4-[6-[2-hydroxy-4-(trifluoromethyl)phenyl]-5-methyl-pyridazin-3-yl]-3,4a,5,7,8,8a-hexahydro-2H-pyrido[4,3-b][1,4]oxazin-6-yl]ethanone] are 16 nM and > 10000 nM.
On the same counts, the results for `CC(=O)NC[C@H]1CN(c2ccc(-c3c(C)cc(Cl)cc3O)nn2)CCO1` [Example 280, N-[[(2S)-4-[6-(4-chloro-2-hydroxy-6-methylphenyl)pyridazin-3-yl]morpholin-2-yl]methyl]acetamide] are 76 nM and > 10000 nM.
On the same counts, the results for `CC(=O)NC[C@H]1CCCN(c2ccc(-c3c(C)cc(C(F)(F)F)cc3O)nn2)C1` [Example 167, N-[[(3R)-1-[6-[2-hydroxy-6-methyl-4-(trifluoromethyl)phenyl]pyridazin-3-yl]-3-piperidyl]methyl]acetamide] are 309 nM and > 10000 nM.
For the compound `CN(C)C[C@H]1CN(c2ccc(-c3c(O)cc(Cl)cc3Cl)nn2)CCO1` [Example 39, 3,5-dichloro-2-[6-[(2S)-2-[(dimethylamino)methyl]morpholin-4-yl]pyridazin-3-yl]phenol], the IC50 in assay [1] is 238 nM; in assay [2] (Homo sapiens, THP-1, 3 h), > 10000 nM.
With `Cc1cc(C)c(-c2ccc(N3C[C@@H](N)CC3=O)nn2)c(O)c1` [Example 131, (4S)-4-amino-1-[6-(2-hydroxy-4,6-dimethyl-phenyl)pyridazin-3-yl]pyrrolidin-2-one], the half-maximal inhibitory concentration (IC50) in assay [1] is 387 nM; in assay [2] (Homo sapiens, THP-1, 3 h), > 10000 nM.
On the same counts, the results for `CCN1CC[C@H]2CCN(c3ccc(-c4c(C)cc(C(F)(F)F)cc4O)nn3)[C@H]2C1` (racemic) [Example 378, 2-[6-[rac-(3aS,7aR)-6-ethyl-3,3a,4,5,7,7a-hexahydro-2H-pyrrolo[2,3-c]pyridin-1-yl]pyridazin-3-yl]-3-methyl-5-(trifluoromethyl)phenol] are 1 nM and > 10000 nM.
For `CN1CC[C@H]2OCCN(c3cc(C(F)F)c(-c4ccc(Cl)cc4O)nn3)[C@H]2C1` [Example 350, 2-[6-[(4aS,8aR)-6-methyl-3,4a,5,7,8,8a-hexahydro-2H-pyrido[4,3-b][1,4]oxazin-4-yl]-4-(difluoromethyl)pyridazin-3-yl]-5-chloro-phenol] the same measures were 1 nM and > 10000 nM.
For `Cc1cc(C)c(-c2ccc(N3CCc4c(CO)cccc43)nn2)c(O)c1` [Example 241, 2-[6-[4-(hydroxymethyl)indolin-1-yl]pyridazin-3-yl]-3,5-dimethyl-phenol], the IC50 was 250 nM in assay [1] and > 10000 nM in assay [2] (Homo sapiens, THP-1, 3 h).
For `CC(=O)NC[C@H]1CCCN(c2ccc(-c3c(C)cc(Cl)cc3O)nn2)C1` [Example 212, N-[[(3R)-1-[6-(4-chloro-2-hydroxy-6-methyl-phenyl)pyridazin-3-yl]-3-piperidyl]methyl]acetamide], the concentration for half-maximal inhibition (IC50) was 39 nM in assay [1] and > 10000 nM in assay [2] (Homo sapiens, THP-1, 3 h).
